# Data: ChEMBL document CHEMBL1806359, “Synthesis and evaluation of bidentate ligands designed to interact with PDZ domains” (Bioorg Med Chem, 2011)
# Biological target: Disks large homolog 4 (Mus musculus) (UniProt Q62108)
# Experiment: Binding affinity to Swiss mouse brain PSD95 domain assessed as inhibition of PSD95-5-HT2A receptor C-terminal decapeptide interaction after overnight incubation by chemiluminescence assay
# Type: tissue-based
# Disks large homolog 4 (Mus musculus), sequence (Q62108 whole entry, looked up, the tested form may be a part): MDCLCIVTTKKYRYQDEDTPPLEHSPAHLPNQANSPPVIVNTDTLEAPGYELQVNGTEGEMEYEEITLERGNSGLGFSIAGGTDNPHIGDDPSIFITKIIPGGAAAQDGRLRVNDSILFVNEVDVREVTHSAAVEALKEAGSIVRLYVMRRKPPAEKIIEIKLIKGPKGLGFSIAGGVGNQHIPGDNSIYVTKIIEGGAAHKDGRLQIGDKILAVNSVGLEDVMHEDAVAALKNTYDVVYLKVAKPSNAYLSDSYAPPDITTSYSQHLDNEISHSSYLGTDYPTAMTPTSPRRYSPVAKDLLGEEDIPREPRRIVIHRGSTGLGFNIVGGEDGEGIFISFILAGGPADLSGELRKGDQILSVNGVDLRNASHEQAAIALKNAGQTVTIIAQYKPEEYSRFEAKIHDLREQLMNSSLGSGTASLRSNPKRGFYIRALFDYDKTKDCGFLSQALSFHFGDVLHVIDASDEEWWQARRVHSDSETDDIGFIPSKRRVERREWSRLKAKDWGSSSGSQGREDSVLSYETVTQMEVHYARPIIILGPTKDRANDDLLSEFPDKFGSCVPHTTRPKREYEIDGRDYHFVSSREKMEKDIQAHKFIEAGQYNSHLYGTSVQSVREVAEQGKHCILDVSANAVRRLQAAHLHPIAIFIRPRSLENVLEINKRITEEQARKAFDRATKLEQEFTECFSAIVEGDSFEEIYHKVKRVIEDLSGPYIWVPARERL
row,inhibition,SMILES
1,Dose-dependent effect,Cc1c(C(=O)NCCNC(=O)[C@@H](N)Cc2c[nH]c3ccccc23)[nH]c2ccc(C(=O)O)cc12
2,Dose-dependent effect,Cc1c(C(=O)NCCN)[nH]c2ccc(C(=O)O)cc12
3,Dose-dependent effect,Cc1c(C(=O)O)[nH]c2ccc(C(=O)O)cc12
